molecular target: T1, Human TRPC6 (Homo sapiens, UniProt Q9Y210); test: Evaluation of TRPC6 channel inhibitory activity (1), FLIPR Calcium 5 Assay Kit, OAG stimulation (Compound Nos. 1-1293); type: cell-based; conditions: Human TRPC6 stably-expressing cells, OAG 30 μM, FLIPR Calcium 5 Assay Kit; read-out: Inhibitory activity (pIC50 class) (converted)
T1 construct: expressed in transfected cells
T1 sequence (Q9Y210 1-931): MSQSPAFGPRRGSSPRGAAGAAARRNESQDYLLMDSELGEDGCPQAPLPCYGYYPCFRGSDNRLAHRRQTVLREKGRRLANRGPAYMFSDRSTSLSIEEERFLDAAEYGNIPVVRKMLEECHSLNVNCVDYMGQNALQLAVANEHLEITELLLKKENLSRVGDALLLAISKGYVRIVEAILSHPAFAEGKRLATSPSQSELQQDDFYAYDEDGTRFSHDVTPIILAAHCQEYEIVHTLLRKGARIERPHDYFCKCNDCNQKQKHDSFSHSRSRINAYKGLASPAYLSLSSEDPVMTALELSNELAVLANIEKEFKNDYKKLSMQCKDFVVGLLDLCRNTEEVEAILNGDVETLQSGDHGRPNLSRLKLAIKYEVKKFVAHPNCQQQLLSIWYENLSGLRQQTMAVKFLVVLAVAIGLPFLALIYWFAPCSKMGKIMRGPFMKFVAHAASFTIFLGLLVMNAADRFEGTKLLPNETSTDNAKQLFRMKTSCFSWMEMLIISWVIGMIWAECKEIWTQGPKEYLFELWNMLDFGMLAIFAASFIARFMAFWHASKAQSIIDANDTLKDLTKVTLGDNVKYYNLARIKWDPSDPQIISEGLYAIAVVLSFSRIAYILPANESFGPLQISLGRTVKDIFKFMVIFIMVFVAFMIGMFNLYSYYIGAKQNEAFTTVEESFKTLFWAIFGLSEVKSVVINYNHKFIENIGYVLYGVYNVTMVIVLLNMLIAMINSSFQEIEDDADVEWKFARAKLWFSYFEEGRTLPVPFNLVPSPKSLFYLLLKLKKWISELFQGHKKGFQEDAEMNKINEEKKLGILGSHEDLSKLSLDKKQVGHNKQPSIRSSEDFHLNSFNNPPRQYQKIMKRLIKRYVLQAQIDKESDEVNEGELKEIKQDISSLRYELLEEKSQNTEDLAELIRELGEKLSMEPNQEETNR
In short: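 TRPC6 (human) stable cells, 24 h culture; Ca5 no-wash dye + probenecid 30 min; cpd 20 min; OAG 30 μM final; ΔF (pre-cpd min to post-OAG max); 0%/100% = no cpd / no cpd + no OAG; 4PL → pIC50, binned +/++/+++.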

`Cc1cc(Oc2cc(C#N)ccc2-c2ccc(C[C@H](N)C(=O)O)cc2)cc(N2CCOCC2)n1` [compound 435, (2S)-2-amino-3-[4-[4-cyano-2-(2-methyl-6-morpholin-4-ylpyridin-4-yl)oxyphenyl]phenyl]propanoic acid] and `Cc1cc(Oc2cc(C#N)ccc2-c2ccc(CN)nn2)cc(N2CCOCC2)n1` [compound 871, 4-[6-(aminomethyl)pyridazin-3-yl]-3-(2-methyl-6-morpholin-4-ylpyridin-4-yl)oxybenzonitrile] cannot be ordered by IC50: greater than 1000 nM for the first, greater than 1000 nM for the second.

Compared with `Cc1nc(Sc2cc(C#N)ccc2-c2ncc(CN)cn2)cc(N2CCCC2)n1` [compound 1262, 4-[5-(aminomethyl)pyrimidin-2-yl]-3-(2-methyl-6-pyrrolidin-1-ylpyrimidin-4-yl)sulfanylbenzonitrile], `Cc1nc(Oc2cc(C#N)ccc2-c2ncc(CN)cn2)cc(N2C=NCCC2)n1` [compound 850, 4-[5-(aminomethyl)pyrimidin-2-yl]-3-[6-(5,6-dihydro-4H-pyrimidin-1-yl)-2-methylpyrimidin-4-yl]oxybenzonitrile] is lower in IC50: greater than 1000 nM for the first, less than 10 nM for the second.

First: CN(C)c1cc(Oc2cc(C#N)ccc2-c2ncc(CN)cn2)n(C)n1 [compound 626, 4-[5-(aminomethyl)pyrimidin-2-yl]-3-[5-(dimethylamino)-2-methylpyrazol-3-yl]oxybenzonitrile]
Second: Cc1csc(-c2cc(Oc3cc(C#N)ccc3-c3ncc(CN)cn3)n(C)n2)n1 [compound 959, 4-[5-(aminomethyl)pyrimidin-2-yl]-3-[2-methyl-5-(4-methyl-1,3-thiazol-2-yl)pyrazol-3-yl]oxybenzonitrile]
The IC50 of the first is lower: less than 10 nM for the first, 10 to 1000 nM for the second.

`N#Cc1ccc(-c2ccc(CCN)cn2)c(C(=O)c2sc(N3CCOCC3)nc2C(F)(F)F)c1` [compound 1077, 4-[5-(2-aminoethyl)pyridin-2-yl]-3-[2-morpholin-4-yl-4-(trifluoromethyl)-1,3-thiazole-5-carbonyl]benzonitrile] and `Cc1nc(N2CCOCC2)sc1C(=O)c1cc(C#N)ccc1-c1ccc(CN)cn1` [compound 1066, 4-[5-(aminomethyl)pyridin-2-yl]-3-(4-methyl-2-morpholin-4-yl-1,3-thiazole-5-carbonyl)benzonitrile] cannot be ordered by IC50: less than 10 nM for the first, less than 10 nM for the second.

`Cc1ccc(-c2cc(Oc3cc(C#N)ccc3-c3ccc(C(O)CN)cc3)n(C)n2)nc1` (stereo not drawn) [Compound 180, 4-[4-(2-amino-1-hydroxyethyl)phenyl]-3-[2-methyl-5-(5-methylpyridin-2-yl)pyrazol-3-yl]oxybenzonitrile] and `Cc1ccc(-c2cc(Oc3cc(C#N)ccc3-c3ccc(CCN)cc3)n(C)n2)nc1` [Compound 164, 4-[4-(2-aminoethyl)phenyl]-3-[2-methyl-5-(5-methylpyridin-2-yl)pyrazol-3-yl]oxybenzonitrile] cannot be ordered by IC50: less than 10 nM for the first, less than 10 nM for the second.

Compared with `CCN(CC(F)F)c1cc(Oc2cc(F)ccc2-c2ccc(CCN)cn2)n(C)n1` [compound 990, 5-[2-[5-(2-aminoethyl)pyridin-2-yl]-5-fluorophenoxy]-N-(2,2-difluoroethyl)-N-ethyl-1-methylpyrazole-3-amine], `Cc1c(Oc2cc(C#N)ccc2-c2ncc(CCN)cn2)cnn1CC(F)F` [compound 925, 4-[5-(2-aminoethyl)pyrimidin-2-yl]-3-[1-(2,2-difluoroethyl)-5-methylpyrazol-4-yl]oxybenzonitrile] is higher in IC50: less than 10 nM for the first, greater than 1000 nM for the second.

`Cn1nc(C(C)(C)C)cc1C(=O)c1cc(C#N)ccc1-c1ncc(CCN)cn1` [compound 1031, 4-[5-(2-aminoethyl)pyrimidin-2-yl]-3-(5-tert-butyl-2-methylpyrazole-3-carbonyl)benzonitrile] and `N#Cc1ccc(-c2ncc(CCN)cn2)c(Cn2cc(C3CCCCC3)nn2)c1` [compound 1186, 4-[5-(2-aminoethyl)pyrimidin-2-yl]-3-[(4-cyclohexyltriazol-1-yl)methyl]benzonitrile] cannot be ordered by IC50: less than 10 nM for the first, less than 10 nM for the second.

`Cn1nc(C2CC2)cc1Oc1cc(C#N)ccc1-c1ccc(N2CC[C@@H](F)[C@H](N)C2)cn1` [compound 869, 4-[5-[(4R)-3-amino-4-fluoropiperidin-1-yl]pyridin-2-yl]-3-(5-cyclopropyl-2-methylpyrazol-3-yl)oxybenzonitrile] and `Cn1nc(C2CC2)cc1Oc1cc(C#N)ccc1-c1ccc2c(N)noc2c1` [compound 414, 4-(3-amino-1,2-benzoxazol-6-yl)-3-(5-cyclopropyl-2-methylpyrazol-3-yl)oxybenzonitrile] cannot be ordered by IC50: greater than 1000 nM for the first, greater than 1000 nM for the second.

`CCCc1nccn1Cc1cc(C#N)ccc1-c1ccc(CCN)cc1` [compound 1121, 4-[4-(2-aminoethyl)phenyl]-3-[(2-propylimidazol-1-yl)methyl]benzonitrile] and `CC(C)(C)CCOc1cc(Oc2cc(C#N)ccc2-c2ccc(CCN)cc2)cnn1` [Compound 126, 4-[4-(2-aminoethyl)phenyl]-3-[6-(3,3-dimethylbutoxy)pyridazin-4-yl]oxybenzonitrile] cannot be ordered by IC50: greater than 1000 nM for the first, greater than 1000 nM for the second.

First: Cc1nc(Oc2cc(C#N)ccc2-c2ccc(CCN)cc2)cc(N2CCC(F)(F)CC2)n1 [Compound 18, 4-[4-(2-aminoethyl)phenyl]-3-[6-(4,4-difluoropiperidin-1-yl)-2-methylpyrimidin-4-yl]oxybenzonitrile]
Second: Cc1nc(Oc2cc(C#N)ccc2-c2ccc(CCN)cc2)cc(N2CCOCC2)n1 [Compound 7, 4-[4-(2-Aminoethyl)phenyl]-3-(2-methyl-6-morpholin-4-ylpyrimidin-4-yl)oxybenzonitrile]
The IC50 of the first is higher: 10 to 1000 nM for the first, less than 10 nM for the second.

Going from `Cc1nc(Oc2cc(C#N)ccc2-c2ccc(C(O)CN3CCCC3)cc2)cc(-c2ccccc2)n1` (stereo not drawn) [Compound 97, 4-[4-(1-hydroxy-2-pyrrolidin-1-ylethyl)phenyl]-3-(2-methyl-6-phenylpyrimidin-4-yl)oxybenzonitrile] to `Cn1nc(-c2ccccc2)cc1Oc1cc(C#N)ccc1-c1ccc(C(O)C(C)(C)N)cn1` (stereo not drawn) [compound 301, 4-[5-(2-amino-1-hydroxy-2-methylpropyl)pyridin-2-yl]-3-(2-methyl-5-phenylpyrazol-3-yl)oxybenzonitrile], the IC50 falls from greater than 1000 nM to less than 10 nM.

`Cn1nc(C2CC2)cc1Oc1cc(C#N)ccc1-c1cc(CN)cn2cnnc12` [compound 731, 4-[6-(aminomethyl)-[1,2,4]triazolo[4,3-a]pyridin-8-yl]-3-(5-cyclopropyl-2-methylpyrazol-3-yl)oxybenzonitrile] and `Cn1nc(-c2ccccc2)cc1Oc1cc(C#N)ccc1-c1nnc(CN)s1` [compound 583, 4-[5-(aminomethyl)-1,3,4-thiadiazol-2-yl]-3-(2-methyl-5-phenylpyrazol-3-yl)oxybenzonitrile] cannot be ordered by IC50: greater than 1000 nM for the first, greater than 1000 nM for the second.

First: CC(C)NCc1cnc(-c2ccc(C#N)cc2Oc2cc(-c3ccccn3)nn2C)nc1 [compound 663, 3-(2-methyl-5-pyridin-2-ylpyrazol-3-yl)oxy-4-[5-[(propan-2-ylamino)methyl]pyrimidin-2-yl]benzonitrile]
Second: Cn1nc(-c2ccccn2)cc1Oc1cc(C#N)ccc1-c1cc(CCN)ccn1 [compound 587, 4-[4-(2-aminoethyl)pyridin-2-yl]-3-(2-methyl-5-pyridin-2-ylpyrazol-3-yl)oxybenzonitrile]
The IC50 of the first is higher: 10 to 1000 nM for the first, less than 10 nM for the second.

Compound `CC(C)Cc1cc(Oc2cc(C#N)ccc2-c2ccc(C(O)CN)cc2)n(C)n1` (stereo not drawn) [Compound 212, 4-[4-(2-amino-1-hydroxyethyl)phenyl]-3-[2-methyl-5 (2-methylpropyl)pyrazol-3-yl]oxybenzonitrile] has an IC50 of less than 10 nM.

Reference: patent US20230167073A1 (Teijin Pharma Limited, priority 2020, published 2023)
